Experimental data published in the NIST ThermoML archive (doi:10.1016/j.fluid.2005.03.023).
Numbers after ± are expanded uncertainties.

Test: not given
Conditions: Crystal; DTA
`CC(=O)c1cccc(O)c1` [1-(3-hydroxyphenyl)ethanone] gave a Normal melting temperature of 93.6 ± 0.5 °C. With `CC(=O)c1ccc(O)cc1` [4'-hydroxyacetophenone] the Normal melting temperature was 108.2 ± 0.5 °C. Compound `CC(=O)c1ccc(N)cc1` [4-acetylaniline] has a Normal melting temperature of 105.1 ± 0.5 °C. Work on `CC(=O)Nc1ccccc1` [N-phenylethanamide] yielded a Normal melting temperature of 113.8 ± 0.5 °C.

Test: Molar enthalpy of transition or fusion
Conditions: Crystal; DSC
With `CC(=O)c1cccc(O)c1` [1-(3-hydroxyphenyl)ethanone] the “Molar enthalpy of transition or fusion” value was 5.58 ± 0.165 kcal/mol. For `CC(=O)c1ccc(O)cc1` [4'-hydroxyacetophenone], the “Molar enthalpy of transition or fusion” value was 4.07 ± 0.127 kcal/mol. In the case of `CC(=O)c1ccc(N)cc1` [4-acetylaniline], the “Molar enthalpy of transition or fusion” value is reported as 4.67 ± 0.141 kcal/mol. With `CC(=O)Nc1ccccc1` [N-phenylethanamide] the “Molar enthalpy of transition or fusion” value was 5.12 ± 0.153 kcal/mol.
